The values below come from US9056108B2, “Method of treating atrial fibrillation” (Gilead Sciences, Inc., priority 2009, dated 2015).

In series [1] the test system is female rabbit isolated heart treated with E-4031. Nature of the series: Torsades de pointes in rabbit isolated heart treated with E-4031. As to conditions: E-4031 60 nM; dronedarone 10 μM. On the procedure: Each rabbit was sedated using intramuscular injections of 6 mg/kg xylazine and 40 mg/kg ketamine and then anesthetized using a “cocktail” of ketamine (15 mg/kg)+xylazine (4 mg/kg) in 1.5 ml saline. The ketamine/xylazine cocktail was administered as an i.v. bolus via the marginal ear vein. After anesthesia was confirmed, the thorax was opened and the heart was quickly excised. The heart was placed in a modified Krebs-Henseleit (K-H) physiological saline solution at room temperature. […] CPP was measured (with a Biopac MP 150 pressure transducer, Goleta, Calif.) from a side port of the aortic catheter. To facilitate exit of fluid from the chamber of the left ventricle (LV), the leaflets of the mitral valve were trimmed with fine spring-handled scissors. The right atrial wall was partially removed.
Complete AV block was induced by thermo-ablation of the AV nodal area. […] A bipolar Teflon-coated electrode was placed on the right ventricular septum to pace the heart. Electrical stimuli 3 ms in width and 3-fold threshold amplitude were delivered to the pacing electrode at a frequency of 1 Hz throughout the experiments using a Grass S48 stimulator (W. Warwick, R.I.).
After initiation of ventricular pacing, a 30-40 min equilibration delay was allowed for heart rate (and CPP) to achieve a steady state, an essential experimental condition for recording a good quality monophasic action potential (MAP) recording.
Monophasic action potential (MAP) and ECG electrodes from Harvard Apparatus Inc. (Holliston, Mass.) were used to record heart rate (in beats per minute, or bpm), left ventricular MAPs and a bipolar ECG MAP electrodes were pressure contact Ag—AgCl cells attached to a circular holder with springs to keep the electrodes in contact with the LV epicardial surface. Two MAP electrodes were placed on the epicardial ventricular free wall below the level of the atrial-ventricular valves, one at the base to record a basal MAP and one at the apex to record an apical MAP. […] Signals were saved on a computer hard disk for subsequent analysis. Bipolar electrocardiograms (ECG) were generated using an isolated-heart ECG apparatus (Harvard Apparatus, Holliston, Mass.) attached to Biopac amplifier system.

In a further series the target is T1, hNav1.5 (Homo sapiens, UniProt Q14524).
T1 construct: expressed in transfected cells; host or cells: HEK293
Nature of the series: Tefluthrin-induced late sodium current in HEK293 cells expressing hNav1.5. Type of series: cell-based. The settings on record: HEK293 cells expressing hNav1.5, tefluthrin 10 μM; read-out: Concentration causing a half-maximal inhibition of late Na+. As for the experimental part:
The effect of dronedarone on late INa has not been reported. Therefore we determined the effect of dronedarone on late INa induced by incubation of HEK293 cells expressing the human heart sodium channel gene Nav1.5 with the late INa enhancer tefluthrin. […] Thus, the combination of dronedarone and ranolazine may be anticipated to reduce late INa. A reduction of late INa in the heart has been associated with a reduction of atrial arrhythmias in patients and in animal models of atrial fibrillation.

The conditions of series [2]: in vivo; cited from earlier work.

T1 sequence (Q14524 whole entry): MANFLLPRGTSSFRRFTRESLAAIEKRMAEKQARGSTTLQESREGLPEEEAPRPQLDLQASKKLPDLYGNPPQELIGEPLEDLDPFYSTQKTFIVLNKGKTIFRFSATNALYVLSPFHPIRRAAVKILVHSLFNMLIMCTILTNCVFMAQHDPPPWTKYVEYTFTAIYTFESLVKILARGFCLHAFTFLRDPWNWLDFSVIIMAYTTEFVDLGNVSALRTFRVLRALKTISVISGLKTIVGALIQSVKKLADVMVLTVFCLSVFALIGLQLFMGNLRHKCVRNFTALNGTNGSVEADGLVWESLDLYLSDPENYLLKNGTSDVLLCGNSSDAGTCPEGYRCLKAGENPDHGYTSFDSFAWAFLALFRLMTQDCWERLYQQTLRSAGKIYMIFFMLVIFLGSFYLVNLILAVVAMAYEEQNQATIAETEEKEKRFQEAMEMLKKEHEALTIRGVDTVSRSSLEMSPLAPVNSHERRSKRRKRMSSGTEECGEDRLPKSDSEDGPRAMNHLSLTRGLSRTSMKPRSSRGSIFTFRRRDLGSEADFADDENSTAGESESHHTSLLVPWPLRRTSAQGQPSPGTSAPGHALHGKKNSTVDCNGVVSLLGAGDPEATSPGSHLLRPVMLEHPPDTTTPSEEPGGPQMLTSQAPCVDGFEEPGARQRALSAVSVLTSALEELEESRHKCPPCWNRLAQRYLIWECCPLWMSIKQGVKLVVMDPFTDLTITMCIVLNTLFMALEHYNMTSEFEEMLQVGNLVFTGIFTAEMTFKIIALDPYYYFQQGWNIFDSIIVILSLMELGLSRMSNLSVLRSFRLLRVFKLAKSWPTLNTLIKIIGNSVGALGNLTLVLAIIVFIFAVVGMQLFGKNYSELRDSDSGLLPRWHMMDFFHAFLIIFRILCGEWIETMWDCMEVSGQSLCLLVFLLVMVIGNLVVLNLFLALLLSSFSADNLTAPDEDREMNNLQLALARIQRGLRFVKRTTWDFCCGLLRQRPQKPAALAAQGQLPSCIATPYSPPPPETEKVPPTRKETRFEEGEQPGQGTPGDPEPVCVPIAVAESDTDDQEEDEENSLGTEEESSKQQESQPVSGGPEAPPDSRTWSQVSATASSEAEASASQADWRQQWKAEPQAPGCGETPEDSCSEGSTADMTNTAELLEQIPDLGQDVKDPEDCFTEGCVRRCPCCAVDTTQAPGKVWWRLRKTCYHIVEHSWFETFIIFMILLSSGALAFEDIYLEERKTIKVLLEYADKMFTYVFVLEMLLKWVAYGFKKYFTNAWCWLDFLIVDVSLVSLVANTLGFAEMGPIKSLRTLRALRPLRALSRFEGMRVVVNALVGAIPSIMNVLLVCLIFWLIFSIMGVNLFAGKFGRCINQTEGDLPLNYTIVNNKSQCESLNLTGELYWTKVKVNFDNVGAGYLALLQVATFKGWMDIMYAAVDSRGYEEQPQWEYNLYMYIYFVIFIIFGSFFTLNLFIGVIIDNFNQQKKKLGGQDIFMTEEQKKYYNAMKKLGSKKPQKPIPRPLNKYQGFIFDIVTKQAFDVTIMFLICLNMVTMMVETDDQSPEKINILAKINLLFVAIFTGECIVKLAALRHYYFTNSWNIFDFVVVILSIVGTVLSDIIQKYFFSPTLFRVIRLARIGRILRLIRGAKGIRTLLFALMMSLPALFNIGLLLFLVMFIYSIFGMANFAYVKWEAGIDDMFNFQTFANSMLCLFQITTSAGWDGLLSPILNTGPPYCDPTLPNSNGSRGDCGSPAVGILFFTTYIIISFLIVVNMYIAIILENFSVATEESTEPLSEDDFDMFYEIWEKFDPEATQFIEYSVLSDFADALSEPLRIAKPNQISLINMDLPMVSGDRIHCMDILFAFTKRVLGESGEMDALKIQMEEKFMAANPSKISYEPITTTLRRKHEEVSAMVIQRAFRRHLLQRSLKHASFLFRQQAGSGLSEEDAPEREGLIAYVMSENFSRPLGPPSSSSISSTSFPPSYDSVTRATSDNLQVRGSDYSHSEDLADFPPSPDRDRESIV

Consider `CCCCc1oc2ccc(NS(C)(=O)=O)cc2c1C(=O)c1ccc(OCCCN(CCCC)CCCC)cc1` [Dronedarone, N-(2-Butyl-3-(p-(3-(dibutylamino)propoxy)benzoyl)-5-benzofuranyl)methanesulfonamide], for which the “Occurrences of torsades de pointes (TdP) (hearts)” value in series [1] was 1/6. The IC50 on hNav1.5 was determined as 4 µM. For the same molecule, the Half-life of elimination result in series [2] is on record as “about 24 hours”.
